Laboratory results taken from a melting point compilation (Tetko et al.; mined from patent text by program, amines drawn as free bases though some values may be those of a salt).

SMILES	melting point [°C]
CC(=O)c1ccc(S(=O)(=O)N(CCO)CCO)cc1	87.5 to 89.5
CCCN1CCN(c2cc(-c3ccc(F)cc3F)c3c(n2)CCCCCC3)CC1	108 to 109
CC(c1oc2ccccc2c(=O)c1-c1cccc(F)c1)n1nc(-c2cnc(N)nc2)c2c(N)ncnc21 (stereo not drawn)	264 to 268
Cc1nc(-c2ccccn2)n2cn[nH]c(=O)c12	295 to 297
CN(C)C1CN(c2cc3nc4c(cc3cc2F)c(=O)c(C(=O)O)cn4C2CC2)C1	264
COc1ccc2nc(NC(=O)C(CC3CCCC3)c3ccc(S(=O)(=O)NCc4cccs4)cc3)sc2n1 (stereo not drawn)	263 to 268
Cc1[nH]c(=O)ccc1-c1ccc2nccn2c1	290 to 292
O=C(O)c1cccc(Cl)c1C(F)(F)F	110
N=C(NO)c1cccc2c1nc(-c1c(F)cccc1F)n2Cc1c(F)cccc1F	214 to 216
Cc1cc(C)cc(-n2ncc(-c3ccc(S(C)(=O)=O)cc3)c(-c3ccc(F)cc3)c2=O)c1	130 to 134
COC(=O)c1c(C)c(OC)cc(O[Si](C)(C)C(C)(C)C(C)C)c1C=O	69 to 70
CC1=NN=C(C=Cc2cccc(F)c2)c2cc3c(cc2C1)OCO3	161 to 162
O=C(N[C@H]1CCCNC1=O)OCc1ccccc1	100 to 102
COc1ccc(C[C@H]2NC(=O)O[C@H]2c2ccc(F)cc2)cc1 (racemic)	125 to 126
Cc1cc(-c2ccc(S(C)=O)cc2)n(-c2ccc(S(N)(=O)=O)cc2)c1 (stereo not drawn)	222 to 226
CSc1nc2cc(Cl)c(Cl)cc2n1C1OC(CO)C(O)C1O (stereo not drawn)	204 to 206
COc1cc(-c2nc3ccccc3n2Cc2ccc(Cl)cc2)cc(OC)c1OC	169
CCOC(=O)c1[nH]c2cc(Cl)cc(Cl)c2c1NCCC(=O)c1ccc(C(F)(F)F)cc1	232 to 234

SMILES	melting point [°C]
Cc1cc2c(cc1Br)cc1n2[C@H](C)CN(C(=O)OC(C)(C)C)C1	113 to 114
CNc1ccc(CO)cc1[N+](=O)[O-]	126 to 127
O=[N+]([O-])c1cc(Cl)cc2c(Cl)ccnc12	149 to 164
CCCCCCCCCCCCCCCC(=O)CC(=O)OC	40 to 41
CCOP(=O)(OCC)C(O[Si](C)(C)C)c1ccc(OC)c(C)c1 (stereo not drawn)	37
O=C1CC2(C(=O)N1)C(=O)N(Cc1ccc(Br)cc1F)c1ccccc12 (stereo not drawn)	218 to 220
CCn1nc2c(OC)nc3ccccc3c2c1CO	219 to 220
O=CN1CCN(c2nc(Cl)nc(Cl)n2)CC1	163 to 165
COc1cc(OC)cc(N2CCN(C(=O)Nc3cc4ccccc4cc3OC)CC2)c1	191 to 193
Cc1cccn2c(C)c(-c3ccc4c(c3)NC(=O)C(C)O4)nc12 (stereo not drawn)	249 to 250
O=C(NCc1ccc(Br)cc1F)OCc1ccccc1	82 to 84
C=CCOc1ccc2c(=O)c3ccccc3oc2c1C(=O)C=Cc1ccccc1	150 to 152
COc1c(Nc2ccccc2)ccc2ccccc12	43 to 45
Clc1ccc2[nH]c(Cc3ccccc3)c(C3=NCCN3)c2c1	299 to 300
C/C(=C(\C#N)C(N)=S)N1CCCOCC1	151 to 156
COC(=O)CCCCC(=O)Nc1ccc(C(=O)NN=C2C(=O)Nc3ccc(I)cc32)cc1	277
CCOc1ccc([N+](=O)[O-])c(NN2CCN(C)CC2)c1	145

Now from value to compound:

melting point [°C]	SMILES
128	Cc1nc2cc3c(cc2c(=O)n1COC(=O)C(C)(C)C)CCC3
96 to 98	O=C(CBr)Nc1cccc(OC(=O)CBr)c1
182	N#CC(C(=O)c1ccc([N+](=O)[O-])cc1)=C1CCCCN1
188 to 189	CN(C(=O)CNc1nc(-c2ccc(C(F)(F)F)cc2)nc(-c2ccccc2)c1Cl)C1CC1
145 to 147	COc1ccc(S(=O)(=O)C(Cl)(Cl)S(=O)(=O)N(C)C)cc1
93 to 95	Cc1cc([N+](=O)[O-])cnc1NCCCN
177 to 179	CCOC(=O)Cc1csc(NC(=S)Nc2cc(Cl)ccc2C)n1
50	CCOC(=O)C1CSC(COc2ccccc2OC)N1 (stereo not drawn)
58 to 60	COC(=O)CCN=c1sc2ccccc2s1
70 to 72	CCOC(=O)c1ncn(Cc2c(F)cccc2F)c1C(=O)OCC
116 to 118	CSc1ccc(C(=S)N2CCCC2)cc1
196 to 198	CSc1ccc(-c2nc(SC)c(C#N)c(=O)n2-c2ccc(C)cc2)cc1
78	N#CCN1CCc2oc3ccccc3c2C1
269 to 270	CSc1sc(C(N)=O)c2c1-c1nc(C)sc1CC2
130 to 131	CC(CCOc1cccc(=O)n1O)CC(C)(C)C (stereo not drawn)
167	CCOCCC(=O)OC1(C(=O)CO)CCC2C3CC(C)C4=CC(=O)C=CC4(C)C3C(O)CC21C (stereo not drawn)
135 to 137	Cc1cc(N)cc(C)c1O
148 to 153	COc1ccccc1N1CCN(CCCCCn2c(=O)[nH]c3cscc3c2=O)CC1
188 to 191	Cc1cc(C2=NN=C(C=O)Cc3cc4c(cc32)OCO4)ccc1[N+](=O)[O-]

melting point [°C]	SMILES
178 to 179	Oc1ccc(OCCN2CCC(CC34CC5CC(CC(C5)C3)C4)CC2)cc1
112 to 115	CS(=O)(=O)c1ccc(-n2cc(C(F)(F)F)nc2-c2ccc(-c3cscn3)cc2)cc1F
105 to 106	CC(C)=CCCC(C)=CCOc1ccc(C(=O)NCC(=O)Nc2ccccn2)cc1
155 to 157	Cc1[nH]c(=O)n(-c2cc(C(=O)OC(C)C)c(Cl)cc2F)c(=O)c1C
64	CCOC(C)C(=O)c1cc(C(C)(C)C)c(O)c(C(C)(C)C)c1 (stereo not drawn)
151 to 152	Cc1oc(-c2ccccc2)nc1COc1ccc(CC2SC(=O)NC2=O)cn1 (stereo not drawn)
51 to 53	CC(CC1(c2ccccc2)C=CCC=C1)OS(C)(=O)=O (stereo not drawn)
150 to 151	COc1cc(COc2nc(-c3ccccc3)ncc2CO)ccc1OCc1nc(-c2ccco2)oc1C
185	CCC(Cc1c(I)cc(I)c(NC(=O)CNCCNCCN)c1I)C(=O)O (stereo not drawn)
126 to 128	COc1ccc(C=CC(=O)O)cc1-c1cc2c(cc1OCCCCCCCC(=O)OC(C)(C)C)C(C)(C)CCC2(C)C
167 to 169	C/C(=N\OCCOc1ccc(C(=O)O)cc1Cl)c1ccc(C(C)(C)C)cc1
136	CCOc1ccc(S(=O)(=O)N(CC(=O)NN=C2C(=O)Nc3ccccc32)c2ccccc2)cc1
94 to 96	CC(C)(c1ccc(Oc2cccc(N)c2)cc1)c1cccc(C(C)(C)c2ccc(Oc3cccc(N)c3)cc2)c1
133 to 134	CCOC(=O)c1cn(Cc2ccc(OCc3nc(-c4ccco4)oc3C)cc2)nc1OCc1ccc(OCc2nc(-c3ccco3)oc2C)cc1
106 to 107	CCCOc1ccc(CN2CCOCC2)cc1-c1nc2c(CCC)nn(C)c2c(=O)[nH]1
145 to 147	CCCCCN1C(=O)C(NC(=O)OC(C)(C)C)c2ccccc21 (stereo not drawn)
85 to 86	O=C1C[C@@H]2CCCC[C@@H]2N1O (relative stereo)
152 to 156	CC(C)CC(CS)C(=O)NCC(=O)NCC(=O)O (stereo not drawn)
104 to 106	COc1ccc(CCc2nc(Br)c(C(F)(F)F)[nH]2)cc1
